Where two headings read alike, the source gives them in different places.
How the values were obtained:
[1] = test system: Huh7/Rep-Feo HCV replicon (HCV RNA replication); type: cell-based, Hepatitis C virus (strain HCV—N, genotype 1b)
Text: Development of the Huh7/Rep-Feo replicon assay. […] This replicon was derived from a chimpanzee infectious clone (strain HCV—N, genotype 1b). In this replicon, the structural genes have been replaced by a reporter gene. The chimeric reporter gene Feo encodes the firefly luciferase protein fused in-frame with neomycin phosphotransferase. This Huh7/Rep-Feo cell supports high levels of autonomous HCV RNA replication because it was derived from the HCV—N strain, which carries an adaptive mutation in NSSA that confers highlevel replication in tissue culture. Furthermore, the level of luciferase correlates well with levels of HCV RNA production, so that luciferase can be used as a reliable surrogate marker for HCV replication. The use of luciferase as a reporter permits quantitative and highthroughput detection of HCV replication levels. The specific use of firefly luciferase makes this replicon especially well-suited for automation, because the luciferase reagent can be added directly to the cell culture system prior to signal detection without the need for cell lysis, washing, or aspiration.
HCV Replicon System-Primary Screening. […] Briefly, this replicon harbors a subgenomic HCV genotype 1b sequence, fused to firefly luciferase, stably replicating under neomycin selection. Cells were propagated in Dulbecco's Modified Eagle's medium (DMEM) containing 10% fetal bovine serum (FBS) supplemented with 1% penicillin-streptomycin, and 500 μg of Geneticin (Invitrogen Corp., Carlsbad, Calif.)/mL. Cells were cultured in a 37° C., 5% CO2-humidified incubator for all experiments. To decrease day-today variability in the assay, a large homogenous population of subconfluent cells was passaged so that a similar lot of cells could be used throughout the HTS assay.
(§1) Primary Screening-HTS. Information about the library of known bioactive compounds that was screened and the general automated HTS protocol is available at http://www.broad.harvard.edu/chembio/index.html (see FIG. 10 for list of primary HTS with known bioactives library). Based on the results of optimization experiments in the 384-well plate format, the general HTS protocol was adapted as follows. Unless otherwise indicated, cells were incubated at all times in a humidified environment with 5% CO2 at 37° C. The assay was initiated by plating 30 μL of medium containing 2000 cells/well into white 384-well opaque-bottom plates (Nunc, Rochester, N.Y.) using an automated plate filler (Bio-Tek uFiller; Winsooki, Vt.) and allowing the cells to adhere for 24 hours. One hundred nL of compound stock solutions in DMSO was transferred from stock plates into the 384-well assay plates using an automated pin-based compound transfer robot (CyBio CyBi-Well vario; Woburn, Mass.). The final compound concentration in each well was estimated to be approximately 10-50 μM, with most compounds at 33 μM. The wells contained 0.33% DMSO by volume. The cells were then incubated for another 48 hours. The luminescent signal from each plate was detected using an automated plate reader (Perkin-Elmer Envision 1; Wellesley, Mass.). This screen was performed in duplicate. For negative controls, entire DMSO-treated control plates were employed, in addition to DMSO-only control wells that were incorporated into each compound assay plate. The cells were assayed for luciferase activity using the Bright-Glo Luciferase assay system (Promega), following the manufacturer's instructions. As a counter-screen, cell viability was assessed using the CellTiterGlo Luminescent cell viability assay (Promega) following the manufacturer's instructions.
Computational Data Analysis-Primary Screening. For each replicate, a mock-treatment distribution based on the total population of mock (DMSO) controls in that replicate was built (FIG. 11).

Huh7/Rep-Feo cells = experiment: Primary HTS cell viability counter-screen (CellTiterGlo); type: cell-based, human; conditions: Table 2 antiviral hits of DOS set; approximately 10-50 μM, most at 33 μM; 48 hours
Description: as §1
Computational Data Analysis-Primary Screening. For each replicate, a mock-treatment distribution based on the total population of mock (DMSO) controls in that replicate was built (FIG. 11). Each compound was independently assigned a sign (ie, “+” or “−”) Z-score. Z-scores are calculated by dividing each background-subtracted, compound-treated well by the global standard deviation. A global standard deviation of the background-subtracted, mock-treated wells is calculated over the entire experiment. This distribution was determined to be consistent with experimental noise observed under cell-based assay conditions. The resulting collection of continuousvalued Z-scores represents the primary data set to be used for further analysis. The composite Z-score was calculated as a vector projection of each Z-score in duplicate onto an imaginary line of perfect reproducibility. Reproducibility is the cosine of the angle between each Z-score and that imaginary line; it is dimensionless and ranges from −1 to +1. […] The primary data were analyzed using the commercial software packages Pipeline Pilot (SciTegic, San Diego, Calif.) and SpotFire (SpotFire, Inc., Somerville, Mass.). The means of the negative, DMSO-only controls were considered the zero point.
Primary Screening—HTS: Unless otherwise indicated, cells were incubated at all times in a humidified environment with 5% CO2 at 37° C. The assay was initiated by plating 30 μl of medium containing 2,000 cells/well into white 384-well opaque-bottom plates (Nunc; Rochester, N.Y.) using an automated plate filler (Bio-Tek μFiller; Winsooki, Vt.) and allowing the cells to adhere for 24 hours. 100 nl of compound stock solutions in DMSO were transferred from stock plates into the 384-well assay plates using an automated pin-based compound transfer robot (CyBio CyBi-Well vario; Woburn, Mass.). The final compound concentration in each well was estimated to be approximately 10-50 μM, with most compounds at 33 μM. The wells contained 0.33% DMSO by volume. The cells were then incubated for another 48 hours. […]

OR6 cells = experiment: Secondary assay cell viability (CellTiter-Glo); conditions: 48 hours
Description: Secondary Assays-Hit Validation. Several hits from primary HTS, as well as functionally related compounds, were purchased from Sigma (St. Louis, Mo.), Calbiochem (San Diego, Calif.), and Microsource (Gaylordsville, Conn.). […] Ten mM of stock solutions of the individual compounds to be tested was prepared in the appropriate solvent (DMSO, ethanol, or H2O, according to the manufacturer's information) and stored at −20° C. Cells were seeded into 96-well plates at a density of 2000 cells/well in 100 μL of medium. The cells were incubated for 24 hours at 37° C. to obtain the optimal level of adherence. Solutions of candidate hit compounds were added to wells to achieve final concentrations of 0.1, 1, 10, 50, and 100 μM. The final concentration of DMSO or ethanol in every well was 1% or less by volume. Mock solutions were used as a negative control. PEG-IFN and ribavirin were used as positive controls at various concentrations, alone and in combination. The plates were then incubated at 37° C. with 5% CO2 for 48 hours before they were analyzed. Luminescent signal was generated using the Renilla luciferase assay kit (Promega) according to the manufacturer's instructions. Signal was then detected using a LumiCount (Packard BioScience Company) luminometer. Cell viability was assessed using CellTiter-Glo (Promega), following the manufacturer's instructions. All experiments were performed in triplicate.
Secondary Assays-Data Analysis. Values were presented as a percentage of mock treated control, which was arbitrarily set at 100%. Data were expressed as the mean (±) SD. […] Synergy calculations were performed using CalcuSyn (Biosoft; Cambridge, England).
Secondary Assays—Hit Validation: 10 mM of stock solutions of the individual compounds to be tested were prepared in DMSO and stored at −20° C. Cells were seeded into 96-well plates at a density of 2,000 cells/well in 100 μl of medium. The cells were incubated for 24 hours at 37° C. to obtain the optimal level of adherence. Solutions of candidate hit compounds were added to wells to achieve varying final concentrations between 0.01 and 100 μM. The final concentration of DMSO or ethanol in every well was 1% or less by volume. Mock solutions were used as a negative control. Peginterferon-alfa-2b (PEG-Intron; Schering Corp.; Kenilworth, N.J.) and ribavirin (Sigma; St. Louis, Mo.) were used as positive controls at various concentrations, alone and in combination. The plates were then incubated at 37° C. with 5% CO2 for 48 hours before they were analyzed. Luminescent signal was generated using the Renilla luciferase assay kit (Promega; Madison, Wis.) according to the manufacturer's instructions. Signal was then detected using a LumiCount™ (Packard BioScience Company; Downers Grove, Ill.) luminometer. Cell viability was assessed using CellTiter-Glo (Promega; Madison, Wis.), following the manufacturer's instructions. All experiments were performed in triplicate. Values were presented as a percentage of mock treated control, which was arbitrarily set at 100%. Data were expressed as the mean±SD.
Secondary Assays—Data Analysis: Values were presented as a percentage of mock treated control, which was arbitrarily set at 100%. Data were expressed as the mean±SD.

[2] = Table 2 antiviral hits of DOS set, approximately 10-50 μM, most at 33 μM, 48 hours

| Structure (SMILES) | R-CompZ, compositeZ score for reporter gene assay [1, 2] | C-CompZ, compositeZ score for cell viability assay (Huh7/Rep-Feo cells) | concentrations at which cytotoxic effects were exhibited (OR6 cells) [µM] | cytotoxicity (in words) (OR6 cells) | R-CompZ, compositeZ score for reporter gene assay [1] |
| --- | --- | --- | --- | --- | --- |
| C#CCCCO/N=C1/[C@H]2CCn3c(=O)n(-c4ccccc4)c(=O)n3[C@H]2[C@H](O)[C@@H]2O[C@H]12 [BUCMLD-XL-184] | −3.0142 | −0.1464 |  |  |  |
| Cc1c(C)c2c(c(C)c1O)CCC(C)(COc1ccc(CC3SC(=O)NC3=O)cc1)O2 (stereo not shown) [Troglitazone, troglitazone] |  |  | ≥ 50 |  |  |
| C#CCCCO/N=C1/[C@H]2CCn3c(=O)n([C@@H](CC)c4ccccc4)c(=O)n3[C@H]2[C@H](O)[C@@H]2O[C@H]12 [BUCMLD-XL-189] | −3.4882 | 0.2217 |  |  |  |
| CC[C@@H](c1ccccc1)n1c(=O)n2n(c1=O)[C@H]1[C@H](O)[C@@H]3O[C@@H]3/C(=N\OC[C@@H](O)COCc3ccco3)[C@H]1CC2 [BUCMLD-XL-190] | −2.5928 | 0.4558 |  |  |  |
| O=c1n(-c2ccccc2)c(=O)n2n1CC[C@@H]1/C(=N/OC[C@@H](O)COCc3ccco3)[C@H]3O[C@H]3[C@@H](O)[C@@H]12 [BUCMLD-B10A8] | −3.7511 | 1.1582 |  |  |  |
| COc1ccc2cc1Oc1ccc(cc1)C[C@H]1c3cc(c(OC)cc3CCN1C)Oc1c(OC)c(OC)cc3c1[C@H](C2)N(C)CC3 [tetrandrine] |  |  |  | cytotoxicity |  |
| CC(=O)OC[C@H]1O[C@@H](O/N=C2/[C@H]3CCn4c(=O)n(-c5ccccc5)c(=O)n4[C@H]3[C@H](O)[C@@H]3O[C@H]23)[C@H](OC(C)=O)[C@@H](OC(C)=O)[C@@H]1OC(C)=O [BUCMLD-B10A13] | −2.8629 | 1.0278 |  |  |  |
| COc1ccc(O[C@H]2C=C[C@@H](c3ccccc3)O[C@@H]2CO/N=C(\C)CCN2CCc3nc(-c4ccccc4)c(-c4ccccc4)cc3C2)cc1 [BUCMLD-B13A1] | −3.1824 | −0.2035 |  |  |  |
| COC12C=C(Br)C(CC1c1cccc(C)c1)[C@@]1(CO1)C2=O (stereo partly shown) [SM_A4B6_2P123] | −3.4419 | −0.795 |  |  |  |
| O=C1C2C=C(Br)C(CC2c2ccccc2)[C@@]12CO2 (stereo partly shown) [SM_A1B5_2P24] | −3.38 | −0.856 |  |  |  |
| C=CC[C@@H]1C=C[C@H](O/N=C2/[C@H]3CCn4c(=O)n(-c5ccccc5)c(=O)n4[C@H]3[C@H](O)[C@@H]3O[C@H]23)[C@@H](CO)O1 [BUCMLD-B10A7] |  | 1.1731 |  |  | −3.3561 |
| COc1ccc(O[C@H]2C=C[C@@H](c3ccccc3)O[C@@H]2CO/N=C2/[C@H]3CCn4c(=O)n(-c5ccccc5)c(=O)n4[C@H]3[C@H](O)[C@@H]3O[C@H]23)cc1 [BUCMLD-B10A1] | −4.4774 | −1.5319 |  |  |  |
| C[C@H](O/N=C1/[C@H]2CCn3c(=O)n(-c4ccccc4)c(=O)n3[C@H]2[C@H](O)[C@@H]2O[C@H]12)c1cn([C@H](CO)Cc2ccccc2)nn1 [BUCMLD-B10A10] | −2.7028 | 1.9213 |  |  |  |
| O=C1C2C=C(Br)C(CC2OCCCCCCO)[C@@]12CO2 (stereo partly shown) [SM_A1B2_1P32] | −3.252 | 0.9925 |  |  |  |
| O=C1C2C=C(I)C(CC2c2ccccc2)[C@@]12CO2 (stereo partly shown) [SM_A5B5_2P118] | −3.6565 | −0.4963 |  |  |  |

— patent publication US20120094939A1, “ANTI-VIRAL COMPOUNDS, COMPOSITIONS AND METHODS” (priority 2007, published 2012)
